Data: patent publication US12263248B2, “Compounds and compositions for intracellular delivery of therapeutic agents” (ModernaTX, Inc., priority 2018, dated 2025)
Marks after values point to notes of the source that are not given here.

Tests used:
[1] = Residual lipid levels in rat liver and spleen (UPLC-MS); type: in vivo; settings: for % dose remaining Rat liver tissue, 48 h: Sprague Dawley rat liver 48 h after 2 mg/kg bolus dose mRNA; for % Lipid Remaining in liver, 48 h: assuming 300 g rat and 15 g liver; for % remaining dose in liver, 48 h: 2.0 mpk
Procedure, shortened: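 Rats received a single intravenous dose of lipid nanoparticle composition, and liver tissue was later collected to quantify residual lipid. Weighed tissue was homogenized in Milli-Q water (900 μL per 100 mg tissue) using an Omni probe homogenizer. 50 μL aliquots were mixed with 400 μL spiking solution, vortexed, centrifuged, and analyzed by UPLC on a C8 column with positive-mode ESI detection on a Sciex API5500 mass spectrometer.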

[2] = Encapsulation efficiency of RNA (QUANT-IT RIBOGREEN RNA assay); type: physicochemical; settings: for % Encapsulation: lipid nanoparticle, ±SD within one assay run (Table 37)
Procedure, shortened: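 RiboGreen fluorescence (ex ~480, em ~520 nm) compared between intact samples and Triton X-100-lysed samples after 15 min at 37 °C in TE buffer, pH 7.5. Percent free RNA is the blank-corrected intact/disrupted ratio.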

[3] = Apparent (surface) pKa of the LNP formulation (TNS assay); type: physicochemical
Procedure, shortened: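 LNP (0.04 mg/mL mRNA) mixed with TNS reagent in 21 buffers spanning about pH 3-12, in triplicate; fluorescence plotted against pH as sigmoidal curve. Apparent pKa taken as […] curve inflection point; validated in 1× PBS and 20 mM Tris w/8% sucrose.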

luciferase mRNA = assay: Luciferase expression after subcutaneous administration to mice; type: in vivo, female CD-1 mice; settings: for Lipid/MC3 AUC ratio: luciferase; for AUC (luciferase expression): whole body BLI; for Novel lipid/MC3 ratio, s.c. Luc 6 hr.: relative to MC3, Table 3G
Procedure, shortened: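 Female CD-1 mice given luciferase mRNA in lipid nanoparticle formulations subcutaneously at 0.5 mpk. Expression read by whole-body bioluminescence imaging at 3, 6 and 24 h, with ex vivo liver, spleen and injection-site luminescence at 24 h.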

sC5b-9 = assay: Complement activation in vitro (sC5b-9 levels); type: cell-based; settings: human cells contacted in vitro; for sC5b-9 levels relative to saline: in words
Procedure, shortened: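 Human cells exposed in vitro to nanoparticle compositions, with the soluble terminal complement complex sC5b-9 measured as a marker of complement activation.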

hEPO mRNA = assay: hEPO expression after intramuscular administration to mice; type: in vivo; settings: for Fold increase in hEPO concentration relative to MC3: mice, 0.01 mpk, 6 hr time point; for Novel lipid/MC3 ratio, 6 hr. timepoint, i.m. hEPO: relative to MC3, Table 3G
[4] = Table 1B, formulated with hEPO mRNA
[5] = Table 1D, for subcutaneous administration, # formulated with hEPO mRNA
[6] = lipid:DSPC:Chol:PEG-DMG (50:10:38.5:1.5), hEPO mRNA
[7] = nanoparticle composition with hEPO mRNA (Table 30)
[8] = lipid nanoparticle, ±SD within one assay run (Table 37)
[9] = Table 1C, compositions for subcutaneous administration
[10] = rat, intravenous, 0.2 mpk, 48 hours, Table 19A
[11] = rat, intravenous, 2 mpk, 48 hours, Table 19A

Compound | % dose remaining Rat liver tissue, 48 h [1] | % lipid remaining in liver after 48 hours ([1]; liver, 48 hours) | % Lipid Remaining in liver, 48 h ([1]; rats, 2 mpk) | % remaining dose in liver, 48 h ([1]; rats, intravenous) | EE (%) ([2]; Table 1A) | EE (%) [2, 4] | % EE [2, 5] | % Encapsulation [2] | EE [2, 7] | pKa ([3]; Table 1A) | pKa [3, 8] | Fold increase in sC5b-9 levels versus saline (sC5b-9) | sC5b-9 levels relative to saline (sC5b-9) | Fold increase in hEPO concentration relative to MC3 (hEPO mRNA) | % EE [2, 9] | Novel lipid/MC3 expression ratio, s.c. Luc 0.5 mpk (AUC) (luciferase mRNA; 0.5 mpk, relative to MC3) | Lipid/MC3 AUC ratio (luciferase mRNA; 0.5 mpk) | AUC (luciferase expression) (luciferase mRNA; 0.5 mpk) | Novel lipid/MC3 ratio, s.c. Luc 6 hr. (luciferase mRNA) | also measured
CCCCCCCCCOC(=O)CCCCCCCN(CCO)CCCCCCCC(=O)OC(CCCCCCCC)CCCCCCCC [Compound 18, Heptadecan-9-yl 8-((2-hydroxyethyl)(8-(nonyloxy)-8-oxooctyl)amino)octanoate] | 0.02^e % | 0.018% | 0.018% | <1% | 95.9% | 96.95% | 96.2% | 97.5 ± 0.2% | 85.56% | 6.56 | 6.56 ± 0.13 | 1.28 | somewhat increase | 8.6 | – | – | – | – | – | EE [2, 6]: 97.34%; EE ([2]; nanoparticle composition with mRNA encoding anti-HA antibody (Table 33)): 79.3%; % EE ([2]; nanoparticle of rat tolerability study (Table 43)): 91%; pKa ([3]; Table 6): 6.56; Novel lipid/MC3 expression ratio, 6 hr. time point, s.c. Luc 0.05 mpk (luciferase mRNA; 0.05 mpk, relative to MC3): 2.63
CCCCCC/C=C\COC(=O)CCCCCCCN(CCO)CCCCCCCC(=O)OC(CCCCCCCC)CCCCCCCC [Compound 24, Heptadecan-9-yl (Z)-8_((2-hydroxyethyl) (8-(non-2-en-1-yloxy)-8-oxooctyl)amino)octanoate] | – | – | 0.016% | <1% | 97.16% | – | – | – | – | 6.71 | – | 0.81 | slightly decrease | – | 90.5% | (AUC: 5.21) | 5.21 | 8.9281E+10 (p/s) * h | 5.79 | –
CCCCCCCCCCCOC(=O)CCCCCN(CCO)CCCCCCCC(=O)OC(CCCCCCCC)CCCCCCCC [Compound 25, Heptadecan-9-yl 8-((2-hydroxyethyl)(6-oxo-6-(undecyloxy)hexyl)amino)octanoate] | 1.3^e % | 1.32% | 1.32% | 1.3% | 95.80% | 97.92% | 97.8% | 95.8 ± 1.0% | 87.01% | 6.68 | 6.68 ± 0.29 | 1.02 | – | 7.1 | 98.1% | (AUC: 1.7) | 1.70 | 2.9156E+10 (p/s) * h | 1.73 | Novel lipid/MC3 ratio, 6 hr. timepoint, i.m. hEPO (hEPO mRNA): 7.1
CCCCCCCCC(CCCCCCCC)OC(=O)CCCCCCCN(CCO)CCCCCCCC(=O)OC(CCCCCCCC)CCCCCCCC [Compound 29, Di(heptadecan-9-yl) 8,8′-((2-hydroxyethyl)azanediyl)dioctanoate] | – | – | – | – | 96.99% | – | – | 97.0 ± 0.6% | – | 6.00 | 6.00 ± 0.24 | 0.93 | slightly decrease | – | – | – | – | – | – | surface pKa ([3]; LNP, Example 26): 6.00; pKa ([3]; Table 6): 6.00
CCCCCCCCCOC(=O)CCCCCCCN(CCO)CCCCCCCOC(=O)C(CCCCCCCC)CCCCCCCC [Compound 30, 7-((2-Hydroxyethyl)(8-(nonyloxy)-8-oxooctyl)amino)heptyl 2-octyldecanoate] | – | – | <0.01% | <1% | 95.69% | 96.32% | 93.1% | – | – | 6.75 | – | 0.94 | slightly decrease | 9.2 | 93.0% | (AUC: 6.38) | 6.38 | 1.0932E+11 (p/s) * h | 6.53 | Apparent pKa ([3]; Table 3G): 6.75; factor by which MC3 is outperformed (luciferase mRNA; female CD-1 mice, 0.5 mpk): 6.5; Novel lipid/MC3 ratio, 6 hr. timepoint, i.m. hEPO (hEPO mRNA): 9.2
CCCCC/C=C\C/C=C\CCCCCCCCN(CCO)CCCCCCCC(=O)OCCCCCCCCC [Compound 136, Nonyl 8-((2-hydroxyethyl)((9Z,12Z)-octadeca-9,12-dien-1-yl)amino)octanoate] | – | – | – | – | 90.9% | – | – | 90.9 ± 0.9% | – | 6.95 | 6.95 ± 0.13 | 0.69 | – | – | – | – | – | – | – | –
CCCCCCCC/C=C\COC(=O)CCCCCN(CCO)CCCCCC(=O)OC/C=C\CCCCCCCC [Compound 140, Di((Z)-undec-2-en-1-yl) 6,6′-((2-hydroxyethyl)azanediyl)dihexanoate] | – | – | – | – | 89.2% | – | – | – | – | 7.71 | – | 0.75 | – | – | – | – | – | – | – | –
CCCCC/C=C\C/C=C\CCCCCCCCC(CCCCCCCC/C=C\C/C=C\CCCCC)OC(=O)CCCN(C)C [MC3, DLin-MC3-DMA, reference compound] | 61^e % | 87% | 87% | 74% | 97.3% | 99.01% | 98.7% | 97.3 ± 1.9% | 91.66% | – | 6.30 ± 0.03 | 0.73 | – | 1 | 98.2% | – | 1 | 1.7127E+10 (p/s) * h | – | % dose remaining, liver, 24 h ([1]; Table 19B, liver, 24 h): 44%; Liver level [1, 10]: 11300 ng/g; Spleen level [1, 10]: 0.74 ng/g; Liver level [1, 11]: 140520 ng/g; Spleen level [1, 11]: 0.65 ng/g; Liver level ([1]; rats, 0.2 mpk, after 48 h): 25033 ng/g; Spleen level ([1]; rats, 0.2 mpk, after 48 h): 9440 ng/g; Liver level ([1]; rats, 2 mpk, after 48 h): 285333 ng/g; Spleen level ([1]; rats, 2 mpk, after 48 h): 129000 ng/g; lipid remained in the liver after 48 hours ([1]; rats, i.v., 0.2 mpk or 2.0 mpk): greater than 60%; % EE ([2]; Table 1E, compositions for subcutaneous administration): 98%; EE [2, 6]: 97.22%; Apparent pKa [3, 4]: 6.35
